# Results published in ChEMBL document CHEMBL4340509, “Synthesis and evaluation of novel GSK-3β inhibitors as multifunctional agents against Alzheimer's disease” (Eur J Med Chem, 2019).
# Activity calls are given as the source filed them. No cut-off for these calls is given here.
# Tests used:
# [1] = molecular target: T1, Glycogen synthase kinase-3 beta (Homo sapiens, UniProt P49841); assay: Inhibition of GSK-3beta (unknown origin) using FAM-labeled peptide as substrate preincubated for 10 mins followed by substrate addition by caliper assay
# Target sequence in this assay (P49841 whole entry): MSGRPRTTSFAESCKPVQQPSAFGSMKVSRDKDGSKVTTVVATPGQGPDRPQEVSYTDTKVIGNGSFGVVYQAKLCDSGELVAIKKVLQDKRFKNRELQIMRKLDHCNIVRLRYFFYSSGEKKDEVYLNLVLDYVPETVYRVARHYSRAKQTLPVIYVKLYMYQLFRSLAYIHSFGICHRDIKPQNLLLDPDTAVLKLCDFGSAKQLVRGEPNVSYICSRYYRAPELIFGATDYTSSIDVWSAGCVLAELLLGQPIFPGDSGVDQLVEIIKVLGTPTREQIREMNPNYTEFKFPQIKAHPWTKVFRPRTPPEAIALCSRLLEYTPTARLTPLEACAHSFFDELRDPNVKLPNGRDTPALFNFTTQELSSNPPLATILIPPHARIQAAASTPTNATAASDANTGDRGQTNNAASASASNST
# [2] = Metal chelating activity assessed as compound-Fe2+ complex formation at 20 uM in the presence of FeSO4 after 30 mins by UV-visible spectrophotometric analysis
# [3] = molecular target: Amyloid-beta precursor protein (Homo sapiens) (UniProt P05067); assay: Disaggregation of HFIP-pretreated human amyloid beta (1 to 42) preformed fibrils at 40 uM after 24 hrs by ThT-based fluorometric method relative to control
# Chain of Amyloid-beta precursor protein (Homo sapiens) (P05067 whole entry): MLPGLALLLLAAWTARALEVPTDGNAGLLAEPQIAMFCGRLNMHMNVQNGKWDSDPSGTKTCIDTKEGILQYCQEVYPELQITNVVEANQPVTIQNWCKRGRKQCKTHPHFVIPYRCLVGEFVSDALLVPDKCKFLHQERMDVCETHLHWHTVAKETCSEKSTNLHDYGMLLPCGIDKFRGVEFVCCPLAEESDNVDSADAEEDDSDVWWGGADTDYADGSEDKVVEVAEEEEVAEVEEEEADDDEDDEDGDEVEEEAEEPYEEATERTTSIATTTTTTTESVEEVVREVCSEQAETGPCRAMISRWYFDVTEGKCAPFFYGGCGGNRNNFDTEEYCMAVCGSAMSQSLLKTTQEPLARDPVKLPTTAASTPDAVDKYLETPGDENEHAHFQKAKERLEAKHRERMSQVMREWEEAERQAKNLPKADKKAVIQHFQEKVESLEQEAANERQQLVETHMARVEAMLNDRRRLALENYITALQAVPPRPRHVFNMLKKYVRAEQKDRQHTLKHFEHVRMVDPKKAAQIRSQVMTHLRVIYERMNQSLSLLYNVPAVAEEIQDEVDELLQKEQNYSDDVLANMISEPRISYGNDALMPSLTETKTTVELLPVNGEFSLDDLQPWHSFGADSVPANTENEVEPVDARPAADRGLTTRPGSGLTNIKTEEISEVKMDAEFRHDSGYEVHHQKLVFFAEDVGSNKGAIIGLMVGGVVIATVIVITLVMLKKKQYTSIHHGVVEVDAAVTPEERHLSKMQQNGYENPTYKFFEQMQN
# [4] = molecular target: T1, Glycogen synthase kinase-3 beta; assay: Inhibition of GSK3bbeta in human SH-SY5Y cells assessed as reduction in human amyloid beta (25 to 35) peptide-induced tau hyperphosphorylation at Ser396 residue preincubated for 1 hr followed by amyloid beta-stimulation and measured after 6 hrs by Western blot analysis; assay type: cell-based
# Target sequence in this assay (P49841 whole entry, looked up): as the sequence (P49841 whole entry) above
# SH-SY5Y [5] = assay: Cytotoxicity against human SH-SY5Y cells measured after 24 hrs by MTT assay; assay type: cell-based
# [6] = Metal chelating activity assessed as compound-Zn2+ complex formation at 20 uM in presence of ZnCl2 after 30 mins by UV-visible spectrophotometric analysis
# PC-12 [7] = assay: Cytotoxicity against rat PC12 cells measured after 24 hrs by MTT assay; assay type: cell-based; details: PC-12, 24 h
# SH-SY5Y [8] = assay: Neuroprotective activity against H2O2-induced oxidative damage in human SH-SY5Y cells assessed as increase in cell viability measured after 24 hrs by MTT assay; assay type: functional, cell-based
# SH-SY5Y [9] = assay: Neuroprotective activity against amyloid beta (1 to 42) (unknown origin)-induced cytotoxicity in SH-SY5Y cells assessed as cell viability at 2 uM measured after 24 hrs by MTT assay (reference value: 78%); assay type: functional; details: Homo sapiens
# [10] = molecular target: T1, Glycogen synthase kinase-3 beta; assay: Inhibition of GSK3bbeta in human SH-SY5Y cells assessed as reduction in human amyloid beta (25 to 35) peptide-induced tau hyperphosphorylation at Ser396 residue at 25 uM preincubated for 1 hr followed by amyloid beta-stimulation and measured after 6 hrs by Western blot analysis relative to control; assay type: cell-based
# Target sequence in this assay (P49841 whole entry, looked up): as the sequence (P49841 whole entry) above
# [11] = Metal chelating activity assessed as compound-Al3+ complex formation by measuring blue shift in maximum absorption at 20 uM in the presence of AlCl3 after 30 mins by UV-visible spectrophotometric analysis (reference value: 407 nanometer)
# [12] = Metal chelating activity assessed as inhibition of Cu(II)/ascorbate-induced ROS production by measuring fluorescence intensity at 100 uM measured at 20 secs interval for 1000 secs by fluorescence assay (reference value: 10 to 52)
# [13] = Potency index, ratio of trolox IC50 to test compound IC50 for ABTS radical scavenging activity; assay type: functional
# SH-SY5Y [14] = assay: Cytotoxicity against human SH-SY5Y cells at 2 uM in the presence of CuCl2 measured after 24 hrs by MTT assay; assay type: cell-based
# SH-SY5Y [15] = assay: Neuroprotective activity against Cu2+-mediated amyloid beta (1 to 42) (unknown origin)-induced cytotoxicity in human SH-SY5Y cells assessed as increase in cell viability at 2 uM measured after 24 hrs by MTT assay; assay type: functional, cell-based
# PC-12 [16] = assay: Neuroprotective activity against H2O2-induced oxidative damage in rat PC12 cells assessed as cell viability at 10 uM measured after 24 hrs by MTT assay relative to control; assay type: functional; details: PC-12, 24 h, read-out: Activity
# [17] = molecular target: Amyloid-beta precursor protein (Homo sapiens) (UniProt P05067); assay: Inhibition of human HFIP-pretreated amyloid beta (1 to 42) self aggregation at 40 uM after 24 hrs by ThT-based fluorometric method relative to control
# [18] = Metal chelating activity assessed as compound-Ca2+ complex formation at 20 uM in the presence of CaCl2 after 30 mins by UV-visible spectrophotometric analysis
# SH-SY5Y [19] = assay: Neuroprotective activity against H2O2-induced oxidative damage in human SH-SY5Y cells assessed as cell viability at 10 uM measured after 24 hrs by MTT assay relative to control; assay type: functional; details: read-out: Activity
# [20] = Metal chelating activity assessed as compound-Cu2+ complex formation by measuring blue shift in maximum absorption at 20 uM in presence of CuCl2 after 30 mins by UV-visible spectrophotometric analysis (reference value: 244 nanometer)
# [21] = Inhibition of Cu2+-induced HFIP pretreated human amyloid beta (1 to 42) aggregation at 40 uM measured after 24 hrs by ThT-based fluorescence assay relative to control
# [22] = Metal chelating activity assessed as Na+-compound complex formation at 20 uM in the presence of NaCl after 30 mins by UV-vis spectrophotometric analysis
# [23] = Metal chelating activity assessed as compound-Mg2+ complex formation at 20 uM in the presence of MgCl2 after 30 mins by UV-visible spectrophotometric analysis
# [24] = Antioxidant activity assessed as ABTS radical scavenging activity incubated for 6 mins; assay type: functional
# [25] = Metal chelating activity assessed as K+-compound complex formation at 20 uM in the presence of KCl after 30 mins by UV-vis spectrophotometric analysis
# [26] = Disaggregation of Cu2+ induced human HFIP-pretreated amyloid beta (1 to 42) preformed fibrils at 40 uM measured after 24 hrs by ThT-based fluorescence assay relative to control
# [27] = Metal chelating activity assessed as compound-Al3+ complex formation at 20 uM in the presence of AlCl3 after 30 mins by UV-visible spectrophotometric analysis
# [28] = Metal chelating activity assessed as compound-Cu2+ complex formation at 20 uM in presence of CuCl2 after 30 mins by UV-visible spectrophotometric analysis
# [29] = molecular target: T1, Glycogen synthase kinase-3 beta; assay: Inhibition of GSK-3beta (unknown origin) at 1 uM using FAM-labeled peptide as substrate preincubated for 10 mins followed by substrate addition by caliper assay relative to control
# Target sequence in this assay (P49841 whole entry, looked up): as the sequence (P49841 whole entry) above
# [30] = molecular target: T1, Glycogen synthase kinase-3 beta; assay: Inhibition of GSK3bbeta in human SH-SY5Y cells assessed as reduction in human amyloid beta (25 to 35) peptide-induced tau hyperphosphorylation at Ser396 residue at […] preincubated for 1 hr followed by amyloid beta-stimulation and measured after 6 hrs by Western blot analysis; assay type: cell-based
# Target sequence in this assay (P49841 whole entry, looked up): as the sequence (P49841 whole entry) above
# [31] = Metal chelating activity assessed as compound-Cu2+ complex formation by measuring shift in maximum absorption wavelength at 20 uM in presence of CuCl2 after 30 mins by UV-visible spectrophotometric analysis (reference value: 327 nanometer)
# [32] = Metal chelating activity assessed as compound-Cu2+ complex formation by measuring shift in maximum absorption wavelength at 20 uM in presence of CuCl2 after 30 mins by UV-visible spectrophotometric analysis (reference value: 338 nanometer)
# [33] = Metal chelating activity assessed as compound-Cu2+ complex formation by measuring shift in maximum absorption wavelength at 20 uM in presence of CuCl2 after 30 mins by UV-visible spectrophotometric analysis (reference value: 326 nanometer)
# [34] = Metal chelating activity assessed as compound-Cu2+ complex formation by measuring shift in maximum absorption wavelength at 20 uM in presence of CuCl2 after 30 mins by UV-visible spectrophotometric analysis (reference value: 311 nanometer)
structure (smiles),measurement,setting,value
Nc1nccc(-c2ccccc2)c1/N=C/c1ccnc(NC(=O)C2CC2)c1,IC50,[1],633 nM
Nc1ncc(-c2ccncc2)cc1/N=C/c1ccnc(NC(=O)C2CC2)c1,Activity,[2],inactive
same,Activity,[3],inactive
same,inhibition,[4],Dose-dependent effect
same,IC50,SH-SY5Y [5],> 200000 nM
same,IC50,[1],38 nM
same,Activity,[6],inactive
same,IC50,PC-12 [7],161000 nM
same,Activity,SH-SY5Y [8],Dose-dependent effect
same,Activity,SH-SY5Y [9],inactive
same,inhibition,[10],< 50%
same,Activity,[11],378 nm
same,Flu intensity,[12],33 to 54
same,Ratio IC50,[13],2 to 4
same,Activity,SH-SY5Y [14],Non-Toxic
same,Activity,SH-SY5Y [15],Active
same,viability at 10 µM,PC-12 [16],76.4%
same,inhibition,[17],inactive
same,Activity,[18],inactive
same,viability at 10 µM,SH-SY5Y [19],92%
same,Activity,[20],241 nm
same,inhibition,[21],33.8%
same,Activity,[22],inactive
same,Activity,[23],inactive
same,IC50,[24],3440 nM
same,Activity,[25],inactive
same,Activity,[26],50.9%
Nc1nccc(-c2ccc(Cl)cc2)c1/N=C/c1ccnc(NC(=O)C2CC2)c1,IC50,[1],> 2000 nM
Cc1csc(-c2cnc(N)c(/N=C/c3ccnc(NC(=O)C4CC4)c3)c2)c1,IC50,[1],315 nM
Nc1ncc(-c2ccc(F)cc2)cc1/N=C/c1ccnc(NC(=O)C2CC2)c1,IC50,[1],418 nM
Cc1ccc(-c2cnc(N)c(NC(=O)c3ccnc(NC(=O)C4CC4)c3)c2)cc1,Activity,[27],inactive
same,IC50,[1],127 nM
same,Activity,[6],inactive
same,Activity,[28],inactive
same,inhibition,[29],99%
Cc1c(C)c2c(c(C)c1O)CCC(C)(C(=O)O)O2 (stereo not drawn) [TROLOX],viability at 10 µM,PC-12 [16],79%
same,viability at 10 µM,SH-SY5Y [19],90%
same,IC50,[24],14300 nM
Cc1ccc(-c2cnc(N)c(/N=C/c3ccnc(NC(=O)C4CC4)c3)c2)cc1,IC50,[1],372 nM
[Cl-].[Li+],inhibition,[30],Active
Cc1ccc(-c2cnc(N)c(NCc3ccnc(NC(=O)C4CC4)c3)c2)cc1,Activity,[2],inactive
same,Activity,[27],inactive
same,Activity,[31],422 nm
same,Activity,[6],inactive
same,Activity,[18],inactive
same,Activity,[22],inactive
same,Activity,[23],inactive
same,Activity,[25],inactive
same,inhibition,[29],28%
Nc1ncc(-c2ccncc2)cc1NC(=O)c1ccnc(NC(=O)C2CC2)c1,Activity,[27],inactive
same,IC50,[1],199 nM
same,Activity,[6],inactive
same,Activity,[28],inactive
same,inhibition,[29],99%
Nc1ncccc1NC(=O)c1ccnc(NC(=O)C2CC2)c1,Activity,[27],inactive
same,IC50,[1],629 nM
same,Activity,[6],inactive
same,Activity,[28],inactive
same,inhibition,[29],77%
Cc1csc(-c2cnc(N)c(NC(=O)c3ccnc(NC(=O)C4CC4)c3)c2)c1,Activity,[27],inactive
same,IC50,[1],219 nM
same,Activity,[6],inactive
same,Activity,[28],inactive
same,inhibition,[29],102%
Cc1csc(-c2cnc(N)c(NCc3ccnc(NC(=O)C4CC4)c3)c2)c1,Activity,[32],440 nm
same,Activity,[2],inactive
same,Activity,[27],inactive
same,Activity,[6],inactive
same,Activity,[18],inactive
same,Activity,[22],inactive
same,Activity,[23],inactive
same,Activity,[25],inactive
same,inhibition,[29],17%
Nc1ncccc1/N=C/c1ccnc(NC(=O)C2CC2)c1,Activity,[2],inactive
same,Activity,[3],inactive
same,Activity,[27],inactive
same,inhibition,[4],Dose-dependent effect
same,IC50,SH-SY5Y [5],> 200000 nM
same,IC50,[1],71 nM
same,Activity,[6],inactive
same,IC50,PC-12 [7],152000 nM
same,Activity,SH-SY5Y [8],Dose-dependent effect
same,Activity,SH-SY5Y [9],inactive
same,inhibition,[10],< 50%
same,Flu intensity,[12],22 to 40
same,Ratio IC50,[13],2 to 4
same,Activity,SH-SY5Y [14],Non-Toxic
same,Activity,SH-SY5Y [15],Active
same,viability at 10 µM,PC-12 [16],72.6%
same,inhibition,[17],inactive
same,Activity,[18],inactive
same,viability at 10 µM,SH-SY5Y [19],92.1%
same,inhibition,[21],24.3%
same,Activity,[22],inactive
same,Activity,[23],inactive
same,IC50,[24],3880 nM
same,Activity,[25],inactive
same,Activity,[28],inactive
same,Activity,[26],42.5%
Nc1ncc(-c2ccccc2)cc1NCc1ccnc(NC(=O)C2CC2)c1,Activity,[33],422 nm
same,Activity,[2],inactive
same,Activity,[27],inactive
same,Activity,[6],inactive
same,Activity,[18],inactive
same,Activity,[22],inactive
same,Activity,[23],inactive
same,Activity,[25],inactive
same,inhibition,[29],27%
Nc1ncc(-c2ccccc2)cc1NC(=O)c1ccnc(NC(=O)C2CC2)c1,Activity,[27],inactive
same,IC50,[1],148 nM
same,Activity,[6],inactive
same,Activity,[28],inactive
same,inhibition,[29],98%
Nc1nccc(-c2ccc(F)cc2)c1/N=C/c1ccnc(NC(=O)C2CC2)c1,IC50,[1],1200 nM
Nc1ncccc1NCc1ccnc(NC(=O)C2CC2)c1,Activity,[34],402 nm
same,Activity,[2],inactive
same,Activity,[27],inactive
same,Activity,[6],inactive
same,Activity,[18],inactive
same,Activity,[22],inactive
same,Activity,[23],inactive
same,Activity,[25],inactive
same,inhibition,[29],33%
COc1cc(/C=C/C(=O)CC(=O)/C=C/c2ccc(O)c(OC)c2)ccc1O [CURCUMIN],Activity,[3],43%
same,viability at 2 µM,SH-SY5Y [9]; read-out: Activity,88%
Nc1ncc(-c2ccc(F)cc2)cc1NC(=O)c1ccnc(NC(=O)C2CC2)c1,Activity,[27],inactive
same,IC50,[1],240 nM
same,Activity,[6],inactive
same,Activity,[28],inactive
same,inhibition,[29],95%
Oc1c(I)cc(Cl)c2cccnc12,Activity,SH-SY5Y [15],Active
same,inhibition,[21],38.8%
same,Activity,[26],34.9%
Nc1ncc(-c2ccncc2)cc1NCc1ccnc(NC(=O)C2CC2)c1,Activity,[2],inactive
same,Activity,[27],inactive
same,Activity,[6],inactive
same,Activity,[18],inactive
same,Activity,[22],inactive
same,Activity,[23],inactive
same,Activity,[25],inactive
same,inhibition,[29],27%
Cc1ccc(-c2ccnc(N)c2/N=C/c2ccnc(NC(=O)C3CC3)c2)cc1,IC50,[1],1250 nM
Nc1nccc(-c2cccc(F)c2)c1/N=C/c1ccnc(NC(=O)C2CC2)c1,IC50,[1],891 nM
